Patent US12037339B2, “Substituted imidazoles as GLP-1 receptor agonists” (Eccogene Inc., priority 2020, dated 2024)

Target: (Homo sapiens, UniProt P43220)
Test: h-GLP-1 activity assay (cAMP HTRF, HEK293 cells with stable expression of human GLP-1)
Type: cell-based
Conditions: relative EC50, 10 nM human GLP-1 set as 100% response, 30 min at 37° C.
Procedure: Human GLP-1 agonizing activity was detected in HEK293 cells with stable expression of human GLP-1 by Cisbio cAMP Gs dynamic kit (Catalog #62AM4PEC) according to manufacturer's protocol. Briefly, cells were collected and resuspended in assay buffer containing 0.1% BSA and 0.5 mM of IBMX at concentration to 2.5×10^5 cells/mL. Two μL 5× compound solution and 8 μL cell suspension were added to each well of low-volume 384 white assay plate. After 30 min incubation at 37° C., 5 μL cAMP-d2 working solution and 5 μL anti-cAMP antibody-cryptate were added to each well, and incubate at room temperature for 1 hr. Series dilution of cAMP was used as standard. Human GLP-1 (7-37) was used as positive control and 10 nM human GLP-1 was set as 100% response. HTRF signals were read at 665 and 615 nm with EnVision plate reader and calculated cAMP concentration by interpolation to the standard curve. The EC50 value of the tested compounds was calculated by fitting the dose response curve using a 4-parameter non-linear regression routine and relative EC50 was presented in Table 29.

(Homo sapiens, UniProt P43220), sequence (P43220 24-463): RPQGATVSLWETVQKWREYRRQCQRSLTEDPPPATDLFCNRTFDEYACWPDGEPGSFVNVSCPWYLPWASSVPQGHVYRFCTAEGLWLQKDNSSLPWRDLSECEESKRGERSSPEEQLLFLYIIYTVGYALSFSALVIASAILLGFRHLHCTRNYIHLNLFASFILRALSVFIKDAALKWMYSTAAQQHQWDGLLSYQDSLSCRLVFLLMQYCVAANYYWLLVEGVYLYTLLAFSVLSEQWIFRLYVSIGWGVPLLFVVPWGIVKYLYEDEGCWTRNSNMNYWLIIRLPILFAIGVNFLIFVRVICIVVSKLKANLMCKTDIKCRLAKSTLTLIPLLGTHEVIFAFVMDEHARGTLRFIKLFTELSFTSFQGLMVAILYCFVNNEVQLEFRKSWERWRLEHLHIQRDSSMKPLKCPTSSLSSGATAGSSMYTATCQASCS

| SMILES | EC50 [µM] |
| --- | --- |
| C[C@H]1c2c(-n3ccn(-c4ccc5c(cnn5C)c4F)c3=O)c(-c3ccc(F)c(Cl)c3)nn2CCN1C(=O)c1cc2cc([C@@H]3CCOC(C)(C)C3)ccc2n1C1(c2noc(=O)[nH]2)CC1 (single isomer, unassigned) [Compound 50] | > 0.1 |
| C[C@@H]1c2c(-n3ccn(-c4ccc5c(cnn5C)c4F)c3=O)c(-c3cc(Cl)c(F)c(Cl)c3)nn2CCN1C(=O)c1cc2cc([C@@H]3CCOC(C)(C)C3)ccc2n1C1(c2noc(=O)[nH]2)CC1 (single isomer, unassigned) [Compound 51] | < 0.02 |
| C[C@H]1c2c(-n3ccn(-c4ccc5c(cnn5C)c4F)c3=O)c(-c3cc(Cl)c(F)c(Cl)c3)nn2CCN1C(=O)c1cc2cc([C@@H]3CCOC(C)(C)C3)ccc2n1C1(c2noc(=O)[nH]2)CC1 (single isomer, unassigned) [Compound 52] | > 0.1 |
| COCC12CCC(n3ccn(-c4c(-c5ccc(F)cc5)nn5c4[C@H](C)N(C(=O)c4cc6cc(C7CCOCC7)ccc6n4Cc4noc(=O)[nH]4)CC5)c3=O)(CC1)CC2 (single isomer, unassigned) [Compound 53] | > 0.1 |
| C[C@H]1c2c(nn(C34CC(C3)C4)c2-n2ccn(-c3ccc4c(cnn4C)c3F)c2=O)CCN1C(=O)c1cc2cc([C@H]3CCOC(C)(C)C3)ccc2n1C1(c2noc(=O)[nH]2)CC1 (single isomer, unassigned) [Compound 60] | < 0.02 |
| C[C@H]1c2c(nn(C34CC(C3)C4)c2-n2ccn(-c3ccc4c(cnn4C)c3F)c2=O)CCN1C(=O)c1cc2cc([C@@H]3CCOC(C)(C)C3)ccc2n1C1(c2noc(=O)[nH]2)CC1 (single isomer, unassigned) [Compound 61] | 0.02 to 0.1 |
| COCC12CCC(n3ccn(-c4c(-c5ccc(F)cc5)nn5c4[C@H](C)N(C(=O)c4cc6cc([C@@H]7CCOC(C)(C)C7)ccc6n4[C@@]4(c6noc(=O)[nH]6)C[C@@H]4C)CC5)c3=O)(CC1)CC2 (single isomer, unassigned) [Compound 62] | 0.02 to 0.1 |
| COCC12CCC(n3ccn(-c4c(-c5ccc(F)cc5)nn5c4[C@H](C)N(C(=O)c4cc6cc([C@H]7CCOC(C)(C)C7)ccc6n4[C@@]4(c6noc(=O)[nH]6)C[C@@H]4C)CC5)c3=O)(CC1)CC2 (single isomer, unassigned) [Compound 63] | > 0.1 |
| C[C@H]1c2c(-n3ccn(-c4ccc5c(cnn5C)c4F)c3=O)c(-c3ccc(F)c(C(F)(F)F)c3)nn2CCN1C(=O)c1cc2cc([C@@H]3CCOC(C)(C)C3)ccc2n1C1(c2noc(=O)[nH]2)CC1 (single isomer, unassigned) [Compound 65] | < 0.02 |
| C[C@@H]1c2c(-n3ccn(-c4ccc5c(cnn5C)c4F)c3=O)c(-c3ccc(F)c(C(F)(F)F)c3)nn2CCN1C(=O)c1cc2cc([C@@H]3CCOC(C)(C)C3)ccc2n1C1(c2noc(=O)[nH]2)CC1 (single isomer, unassigned) [Compound 66] | > 0.1 |
| C[C@H]1c2c(nn(-c3ccc(F)c(Cl)c3)c2-n2ccn(-c3ccc4c(cnn4C)c3F)c2=O)CCN1C(=O)c1cc2cc([C@@H]3CCOC(C)(C)C3)ccn2c1C1(c2noc(=O)[nH]2)CC1 (single isomer, unassigned) [Compound 67] | < 0.02 |
| Cc1cc(-c2nn3c(c2-n2ccn(-c4ccc5c(cnn5C)c4F)c2=O)[C@@H](C)N(C(=O)c2cc4cc([C@@H]5CCOC(C)(C)C5)ccn4c2C2(c4noc(=O)[nH]4)CC2)CC3)cc(C)c1F (single isomer, unassigned) [Compound 68] | < 0.02 |
| Cc1cc(-c2nn3c(c2-n2ccn(-c4ccc5c(cnn5C)c4F)c2=O)[C@@H](C)N(C(=O)c2cn4cc([C@@H]5CCOC(C)(C)C5)ccc4c2C2(c4noc(=O)[nH]4)CC2)CC3)cc(C)c1F (single isomer, unassigned) [Compound 69] | < 0.02 |
| C[C@H]1c2c(nn(-c3ccc(F)c(F)c3)c2-n2ccn(-c3ccc4c(cnn4C)c3F)c2=O)CCN1C(=O)c1cn2cc([C@@H]3CCOC(C)(C)C3)ccc2c1C1(c2noc(=O)[nH]2)CC1 (single isomer, unassigned) [Compound 70] | < 0.02 |
| C[C@H]1c2c(nn(-c3ccc(F)c(C(F)(F)F)c3)c2-n2ccn(-c3ccc4c(cnn4C)c3F)c2=O)CCN1C(=O)c1cn2cc([C@@H]3CCOC(C)(C)C3)ccc2c1C1(c2noc(=O)[nH]2)CC1 (single isomer, unassigned) [Compound 71] | < 0.02 |
| C[C@H]1c2c(nn(-c3cc(F)c(F)c(F)c3)c2-n2ccn(-c3ccc4c(cnn4C)c3F)c2=O)CCN1C(=O)c1cc2cc([C@@H]3CCOC(C)(C)C3)ccn2c1C1(c2noc(=O)[nH]2)CC1 (single isomer, unassigned) [Compound 72] | < 0.02 |
| C[C@H]1c2c(nn(-c3ccc(F)c(C(F)(F)F)c3)c2-n2ccn(-c3ccc4c(cnn4C)c3F)c2=O)CCN1C(=O)c1cc2cc([C@@H]3CCOC(C)(C)C3)ccn2c1C1(c2noc(=O)[nH]2)CC1 (single isomer, unassigned) [Compound 74] | < 0.02 |

| SMILES | EC50 [µM] |
| --- | --- |
| C[C@H]1c2c(nn(-c3cc(F)c(F)c(F)c3)c2-n2ccn(-c3ccc4c(cnn4C)c3F)c2=O)CCN1C(=O)c1cn2cc([C@@H]3CCOC(C)(C)C3)ccc2c1C1(c2noc(=O)[nH]2)CC1 (single isomer, unassigned) [Compound 75] | < 0.02 |
| Cc1cc(-n2nc3c(c2-n2ccn(-c4ccc5c(cnn5C)c4F)c2=O)[C@H](C)N(C(=O)c2cc4cc([C@@H]5CCOC(C)(C)C5)ccn4c2C2(c4noc(=O)[nH]4)CC2)CC3)ccc1F (single isomer, unassigned) [Compound 77] | < 0.02 |
| C[C@H]1c2c(nn(-c3ccc(F)c(F)c3)c2-n2ccn(-c3ccc4c(cnn4C)c3F)c2=O)CCN1C(=O)c1cc2cc([C@@H]3CCOC(C)(C)C3)ccn2c1C1(c2noc(=O)[nH]2)CC1 (single isomer, unassigned) [Compound 78] | < 0.02 |
| Cc1cc(-n2nc3c(c2-n2ccn(-c4ccn5c(C)nnc5c4)c2=O)[C@H](C)N(C(=O)c2cn4cc([C@@H]5CCOC(C)(C)C5)ccc4c2C2(c4noc(=O)[nH]4)CC2)CC3)cc(C)c1F (single isomer, unassigned) [Compound 79] | < 0.02 |
| C[C@H]1c2c(nn(-c3ccc(F)c(OC(F)(F)F)c3)c2-n2ccn(-c3ccc4c(cnn4C)c3F)c2=O)CCN1C(=O)c1cn2cc([C@@H]3CCOC(C)(C)C3)ccc2c1C1(c2noc(=O)[nH]2)CC1 (single isomer, unassigned) [Compound 80] | < 0.02 |
| C[C@H]1c2c(nn(-c3ccc(F)c(OC(F)(F)F)c3)c2-n2ccn(-c3ccc4c(cnn4C)c3F)c2=O)CCN1C(=O)c1cc2cc([C@@H]3CCOC(C)(C)C3)ccn2c1C1(c2noc(=O)[nH]2)CC1 (single isomer, unassigned) [Compound 81] | < 0.02 |
| Cc1cc(-n2nc3c(c2-n2ccn(-c4ccc5c(cnn5C)c4F)c2=O)[C@H](C)N(C(=O)c2nn4cc([C@H]5CCOC(C)(C)C5)ccc4c2C2(c4noc(=O)[nH]4)CC2)CC3)cc(C)c1F (single isomer, unassigned) [Compound 82] | 0.02 to 0.1 |
| Cc1cc(-n2nc3c(c2-n2ccn(-c4ccc5c(cnn5C)c4F)c2=O)[C@H](C)N(C(=O)c2nn4cc([C@@H]5CCOC(C)(C)C5)ccc4c2C2(c4noc(=O)[nH]4)CC2)CC3)cc(C)c1F (single isomer, unassigned) [Compound 83] | < 0.02 |
| C[C@H]1c2c(nn(-c3ccc(F)c(C4CC4)c3)c2-n2ccn(-c3ccc4c(cnn4C)c3F)c2=O)CCN1C(=O)c1nn2cc([C@@H]3CCOC(C)(C)C3)ccc2c1C1(c2noc(=O)[nH]2)CC1 (single isomer, unassigned) [Compound 84] | < 0.02 |
| C[C@H]1c2c(nn(-c3ccc(F)c(C4CC4)c3)c2-n2ccn(-c3ccc4c(cnn4C)c3F)c2=O)CCN1C(=O)c1c(C2(c3noc(=O)[nH]3)CC2)c2ccc([C@@H]3CCOC(C)(C)C3)cn2c1Cl (single isomer, unassigned) [Compound 85] | 0.02 to 0.1 |
| Cc1cc(-n2nc3c(c2-n2ccn(-c4ccc5c(cnn5C)c4F)c2=O)[C@H](C)N(C(=O)c2cn4cc([C@H]5CCOC6(CC6)C5)ccc4c2C2(c4noc(=O)[nH]4)CC2)CC3)cc(C)c1F (single isomer, unassigned) [Compound 86] | < 0.02 |
| Cc1cc(-n2nc3c(c2-n2ccn(-c4ccc5c(cnn5C)c4F)c2=O)[C@H](C)N(C(=O)c2cn4cc([C@@H]5CCOC6(CC6)C5)ccc4c2C2(c4noc(=O)[nH]4)CC2)CC3)cc(C)c1F (single isomer, unassigned) [Compound 87] | < 0.02 |
| C[C@H]1c2c(nn(-c3ccc(F)c(C4CC4)c3)c2-n2ccn(-c3ccc4c(cnn4C)c3F)c2=O)CCN1C(=O)c1c(Cl)c2cc([C@@H]3CCOC(C)(C)C3)ccn2c1C1(c2noc(=O)[nH]2)CC1 (single isomer, unassigned) [Compound 88] | > 0.1 |
| C[C@H]1c2c(nn(-c3ccc(F)c(C4CC4)c3)c2-n2ccn(-c3ccc4c(cnn4C)c3F)c2=O)CCN1C(=O)c1cn2nc([C@H]3CCOC(C)(C)C3)ccc2c1C1(c2noc(=O)[nH]2)CC1 (single isomer, unassigned) [Compound 89] | 0.02 to 0.1 |
| C[C@H]1c2c(nn(-c3ccc(F)c(C4CC4)c3)c2-n2ccn(-c3ccc4c(cnn4C)c3F)c2=O)CCN1C(=O)c1cn2cc([C@@H]3CCOC(C)(C)C3)cc(F)c2c1C1(c2noc(=O)[nH]2)CC1 (single isomer, unassigned) [Compound 92] | < 0.02 |
| C[C@H]1c2c(nn(-c3ccc(F)c(C4CC4)c3)c2-n2ccn(-c3ccc4c(cnn4C)c3F)c2=O)CCN1C(=O)c1cc2cc([C@H]3CCOC(C)(C)C3)c(F)cn2c1C1(c2noc(=O)[nH]2)CC1 (single isomer, unassigned) [Compound 93] | < 0.02 |
